US12258344B2, “Azaaromatic amide derivatives for the treatment of cancer” (SHENZHEN FORWARD PHARMACEUTICALS CO., LTD., priority 2019, dated 2025)

Experiments:
BaF3 (EGFR-A763insFQEA) = BaF3 (EGFR-A763insFQEA) (Homo sapiens, UniProt P00533, INS763FQEA, cells depend on it); test: Test 3: BaF3 (EGFR-A763insFQEA) cell proliferation test; type: cell-based; details: 72 hours, Cell Titer-Glo, read-out: Test 3 - IC50
Description: Test 3: BaF3 (EGFR-A763insFOEA) Cell Proliferation Test
BaF3 (EGFR-A763insFQEA) was cultured in RPMI1640 medium containing 10% fetal bovine serum and 2 mM glutamine. The cells were grown at 37° C. in a humidified incubator with 5% CO2.
(§1) The number of viable cells in the culture was measured according to the protocol described in Promega's Cell Titer-Glo Luminescent cell Viability Assay (Promega catalog number #G7570). 90 μl of cells (3,000 cells/well) were cultured in growth medium in a Corning black transparent bottom 96-well plate, and cultured in a 5% CO2 humidified incubator at 37° C. overnight. The compound serially diluted in 100% DMSO was added to the cells using a pipette, and the cells were incubated for another 72 hours. 100 μl of the mixed Cell Titer-Glo reagent was added to the cells in the 96-well culture plate to lyse the cells and mix gently. Subsequently, the […] was detected on the Envision microplate detector to obtain the data of each compound. Finally, the data was input into a suitable software package (such as Prism) for curve fitting analysis.

HER4 kinase = biological target: T1, HER4 kinase (Homo sapiens, UniProt Q15303); test: Test 12: HER4 kinase screening test; type: binding; details: for inhibition at 1 µM: compound concentration 1 μM, read-out: 1 μM Inhibition rate (%); for inhibition at 10 µM: compound concentration 10 μM, read-out: 10 μM Inhibition rate (%)
T1 construct: made in house
Description: Test 12: HER4 Kinase Screening Test
Most kinase activity tests were carried out by T7 phage expressing kinase expressed in E. coli system. After E. coli grew to the logarithmic phase, E. coli was infected with T7 bacteriophage (moi=0.4) and cultured with shaking at 32° C. until lysis (90-150 minutes). The lysate was filtered with a centrifuge (6,000 g) and filtration membrane (0.2 μm) to remove cell debris. Other individual kinases to be tested were expressed by HEK-293 cells and labeled with DNA for qPCR detection.
Next, the ligand magnetic beads were blocked with excess biotin and washed with blocking buffer (SeaBlock (Pierce), 1% BSA, 0.05% Tween-20, 1 mm DTT) to remove unbound ligand and reduce non-specific binding of phages. […] 100% DMSO was used to prepare the test compound at a concentration of 40×, which was directly diluted into the reaction system. All reactions were carried out on a polypropylene 384-well plate, and the final volume of the reaction system was 0.02 ml.

BaF3 (EGFR-D770insSVD) = BaF3 (EGFR-D770insSVD) (Homo sapiens, UniProt P00533, DUP768-770, cells depend on it); test: Test 2: BaF3 (EGFR-D770insSVD) cell proliferation test; type: cell-based; details: 72 hours, Cell Titer-Glo, read-out: Test 2 - IC50
Description: Test 2: BaF3 (EGFR-D770insSVD) Cell Proliferation Test
BaF3 (EGFR-D770insSVD) was cultured in RPMI1640 medium containing 10% fetal bovine serum and 2 mM glutamine. The cells were grown at 37° C. in a humidified incubator with 5% CO2.
as §1

BaF3 (EGFR-A763insFQEA), sequence (P00533 with tags, fused parts or gaps INS763FQEA): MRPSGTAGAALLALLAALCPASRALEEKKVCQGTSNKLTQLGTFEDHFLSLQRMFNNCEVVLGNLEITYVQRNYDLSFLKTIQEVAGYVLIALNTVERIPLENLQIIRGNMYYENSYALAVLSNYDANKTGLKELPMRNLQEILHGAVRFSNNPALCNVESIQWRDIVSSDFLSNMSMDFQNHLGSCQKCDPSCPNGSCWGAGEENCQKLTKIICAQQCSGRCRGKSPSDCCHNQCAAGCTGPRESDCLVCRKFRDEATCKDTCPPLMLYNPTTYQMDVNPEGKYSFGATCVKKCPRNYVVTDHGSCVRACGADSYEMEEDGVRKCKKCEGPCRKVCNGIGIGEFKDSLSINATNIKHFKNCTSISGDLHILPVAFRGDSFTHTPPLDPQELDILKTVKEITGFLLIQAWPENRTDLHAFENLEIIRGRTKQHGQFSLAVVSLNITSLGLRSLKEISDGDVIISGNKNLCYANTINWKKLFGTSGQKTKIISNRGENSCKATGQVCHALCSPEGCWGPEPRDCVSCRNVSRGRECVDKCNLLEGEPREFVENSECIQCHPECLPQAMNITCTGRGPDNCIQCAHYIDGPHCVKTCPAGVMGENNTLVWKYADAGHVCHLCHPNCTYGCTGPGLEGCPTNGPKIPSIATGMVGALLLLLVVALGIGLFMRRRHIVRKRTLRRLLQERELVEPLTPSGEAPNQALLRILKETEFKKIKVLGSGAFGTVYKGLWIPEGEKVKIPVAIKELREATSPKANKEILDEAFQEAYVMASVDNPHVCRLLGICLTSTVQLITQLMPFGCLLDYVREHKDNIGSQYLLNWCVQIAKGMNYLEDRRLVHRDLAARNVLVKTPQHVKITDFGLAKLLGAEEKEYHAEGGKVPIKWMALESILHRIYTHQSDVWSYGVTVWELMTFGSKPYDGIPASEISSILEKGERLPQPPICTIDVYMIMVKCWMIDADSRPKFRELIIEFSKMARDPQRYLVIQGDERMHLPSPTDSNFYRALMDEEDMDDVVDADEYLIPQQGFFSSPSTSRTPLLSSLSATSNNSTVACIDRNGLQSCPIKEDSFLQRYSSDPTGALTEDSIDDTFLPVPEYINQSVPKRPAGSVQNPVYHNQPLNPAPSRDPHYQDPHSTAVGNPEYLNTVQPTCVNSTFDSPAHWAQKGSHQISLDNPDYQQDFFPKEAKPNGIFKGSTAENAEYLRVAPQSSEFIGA
BaF3 (EGFR-D770insSVD), sequence (P00533 with tags, fused parts or gaps DUP768-770): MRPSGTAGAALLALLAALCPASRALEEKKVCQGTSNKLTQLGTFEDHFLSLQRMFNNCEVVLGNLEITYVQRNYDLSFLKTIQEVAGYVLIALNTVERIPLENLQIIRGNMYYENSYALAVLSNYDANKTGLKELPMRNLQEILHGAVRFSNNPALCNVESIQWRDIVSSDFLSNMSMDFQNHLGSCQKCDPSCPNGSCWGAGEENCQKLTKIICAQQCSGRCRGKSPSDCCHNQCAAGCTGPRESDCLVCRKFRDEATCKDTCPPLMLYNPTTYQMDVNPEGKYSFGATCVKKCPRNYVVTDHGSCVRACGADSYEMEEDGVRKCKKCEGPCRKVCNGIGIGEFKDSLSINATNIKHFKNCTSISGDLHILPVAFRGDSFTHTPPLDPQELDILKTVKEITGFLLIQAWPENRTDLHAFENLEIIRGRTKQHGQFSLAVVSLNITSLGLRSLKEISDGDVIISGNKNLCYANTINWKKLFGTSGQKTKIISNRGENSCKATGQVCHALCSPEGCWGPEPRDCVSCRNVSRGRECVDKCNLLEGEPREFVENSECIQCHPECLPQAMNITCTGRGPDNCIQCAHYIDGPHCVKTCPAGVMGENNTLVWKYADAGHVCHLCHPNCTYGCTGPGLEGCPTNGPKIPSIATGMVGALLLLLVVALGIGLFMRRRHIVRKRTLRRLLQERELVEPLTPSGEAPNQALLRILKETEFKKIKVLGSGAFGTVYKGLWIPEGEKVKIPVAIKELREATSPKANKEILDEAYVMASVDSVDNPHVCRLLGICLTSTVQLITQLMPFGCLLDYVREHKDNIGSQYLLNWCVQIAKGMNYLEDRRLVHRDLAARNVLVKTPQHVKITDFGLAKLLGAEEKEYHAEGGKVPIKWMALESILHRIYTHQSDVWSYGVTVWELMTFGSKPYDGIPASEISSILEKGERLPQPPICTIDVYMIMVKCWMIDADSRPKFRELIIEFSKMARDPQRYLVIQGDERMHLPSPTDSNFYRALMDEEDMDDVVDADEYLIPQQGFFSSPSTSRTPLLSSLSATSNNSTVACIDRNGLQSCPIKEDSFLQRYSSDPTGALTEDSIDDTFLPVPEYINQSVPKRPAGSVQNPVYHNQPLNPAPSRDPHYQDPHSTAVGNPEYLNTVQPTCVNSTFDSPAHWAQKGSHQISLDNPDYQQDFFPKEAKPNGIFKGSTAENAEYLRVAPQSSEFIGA
T1 sequence (Q15303 26-1308): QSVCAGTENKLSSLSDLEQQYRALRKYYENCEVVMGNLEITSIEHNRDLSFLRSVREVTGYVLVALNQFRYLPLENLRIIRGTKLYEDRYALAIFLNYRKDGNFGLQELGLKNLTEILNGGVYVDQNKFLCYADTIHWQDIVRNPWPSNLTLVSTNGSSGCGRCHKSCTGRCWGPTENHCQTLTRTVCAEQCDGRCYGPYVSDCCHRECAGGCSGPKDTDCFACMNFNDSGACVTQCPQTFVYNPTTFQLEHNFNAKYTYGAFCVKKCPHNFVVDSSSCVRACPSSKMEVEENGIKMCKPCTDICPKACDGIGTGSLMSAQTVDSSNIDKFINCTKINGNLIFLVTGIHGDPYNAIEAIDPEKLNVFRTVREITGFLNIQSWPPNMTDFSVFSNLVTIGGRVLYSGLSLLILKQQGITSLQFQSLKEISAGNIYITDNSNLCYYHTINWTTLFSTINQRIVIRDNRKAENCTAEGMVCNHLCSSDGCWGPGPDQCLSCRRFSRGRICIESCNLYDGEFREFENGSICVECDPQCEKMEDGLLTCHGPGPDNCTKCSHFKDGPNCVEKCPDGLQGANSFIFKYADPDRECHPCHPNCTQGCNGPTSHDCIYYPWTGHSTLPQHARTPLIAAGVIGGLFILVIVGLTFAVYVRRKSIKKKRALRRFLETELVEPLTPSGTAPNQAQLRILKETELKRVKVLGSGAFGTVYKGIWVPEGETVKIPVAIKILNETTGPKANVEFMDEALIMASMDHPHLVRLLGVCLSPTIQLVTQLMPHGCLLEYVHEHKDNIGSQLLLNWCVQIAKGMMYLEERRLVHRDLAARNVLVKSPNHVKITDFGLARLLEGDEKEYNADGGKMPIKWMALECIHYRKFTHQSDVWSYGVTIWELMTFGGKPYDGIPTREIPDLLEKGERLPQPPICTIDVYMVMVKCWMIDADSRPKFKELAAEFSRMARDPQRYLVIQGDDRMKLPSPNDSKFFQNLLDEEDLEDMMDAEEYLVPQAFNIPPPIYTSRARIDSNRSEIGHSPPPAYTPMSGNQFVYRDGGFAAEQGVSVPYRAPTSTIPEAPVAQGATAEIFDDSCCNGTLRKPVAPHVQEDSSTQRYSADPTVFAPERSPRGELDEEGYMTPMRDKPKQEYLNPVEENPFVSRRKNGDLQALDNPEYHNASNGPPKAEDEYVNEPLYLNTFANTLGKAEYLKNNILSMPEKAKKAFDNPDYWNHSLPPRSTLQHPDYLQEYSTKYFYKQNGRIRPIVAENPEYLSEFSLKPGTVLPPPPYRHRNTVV

| GI50 (BaF3 (EGFR-A763insFQEA)) [nM] | inhibition at 1 µM (HER4 kinase) [%] | inhibition at 10 µM (HER4 kinase) [%] | GI50 (BaF3 (EGFR-D770insSVD)) [nM] | Structure (SMILES) |
| --- | --- | --- | --- | --- |
| 14 | > 98 | > 98 | 24.4 | C=CC(=O)Nc1cc(Nc2ncnc(-c3cn(C)c4ccc(F)cc34)n2)c(OCC(F)(F)F)cc1N(C)CCN(C)C [Example 15, N-(2-((2-(dimethylamino)ethyl)(methyl)amino)-5-((4-(5-fluoro-1-methyl-1H-indol-3-yl)-1,3,5-triazin-2-yl)amino)-4-(2,2,2-trifluoroethoxy)phenyl)acrylamide] |
| 9.45 | > 95 | > 95 | 22.3 | C=CC(=O)Nc1cc(Nc2ncnc(-c3cn(C)c4ccc(F)cc34)n2)c(OC)cc1N(C)CCN(C)C [Example 11] |
| 7.6 | > 98 | > 98 | 16.4 | C=CC(=O)Nc1cc(Nc2ncnc(-c3cn(C)c4ccc(F)cc34)n2)c(OC(F)F)cc1N(C)CCN(C)C [Example 14, N-(4-(difluoromethoxy)-2-((2-(dimethylamino)ethyl)(methyl)amino)-5-((4-(5-fluoro-1-methyl-1H-indol-3-yl)-1,3,5-triazin-2-yl)amino)phenyl)acrylamide] |
